# Data taken from patent US20230203043A1, “NOVEL IMIDAZOPYRAZINE DERIVATIVES” (Hoffmann-La Roche Inc., priority 2020, published 2023).
# Counter-ions that a name gives are not always drawn.
# Tested on: Acinetobacter baumannii ATCC17961
# Test: Antimicrobial susceptibility testing: 90% growth inhibitory concentration (IC90) determination in Iso-Sensitest broth, OD600 growth
# Type: cell-based
# Details: Acinetobacter baumannii, ATCC17961, 16 h, read-out: A. baumannii ATCC 17961 IC90 (uM), strain ATCC 17961, OD600 growth over 16 h
# In short: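 Growth inhibition is calculated during the logarithmic phase from OD600 readings taken every 20 minutes across 16 h at 35±2° C. Bacteria at ~5×10^(5) CFU/ml face twofold dilution series (e.g. 50 to 0.097 μM final).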
row,Compound,IC90
1,"Cc1cc(Nc2nccn3c(-c4c[nH]nc4C(F)(F)F)cnc23)ccc1C(=O)N1CCN(C(=O)C2(O)CCNCC2)CC1 [Example 460, formic acid; [4-(4-hydroxypiperidine-4-carbonyl)piperazin-1-yl]-[2-methyl-4-[[3-[3-(trifluoromethyl)-1H-pyrazol-4-yl]imidazo[1,2-a]pyrazin-8-yl]amino]phenyl]methanone]",0.896 µM
2,"Cc1cc(Nc2nccn3c(-c4c[nH]nc4C(F)(F)F)cnc23)ccc1C(=O)N1CCN(C(=O)[C@@H]2CCNC[C@@H]2O)CC1 [Example 461, formic acid; [4-[(3R,4R)-3-hydroxypiperidine-4-carbonyl]piperazin-1-yl]-[2-methyl-4-[[3-[3-(trifluoromethyl)-1H-pyrazol-4-yl]imidazo[1,2-a]pyrazin-8-yl]amino]phenyl]methanone]",0.926 µM
3,"Cc1cc(Nc2nccn3c(-c4c[nH]nc4C(F)(F)F)cnc23)ccc1C(=O)N1CCN(C(=O)[C@@H]2C[C@](C)(O)CN2)CC1 [Example 462, formic acid; [4-[(2S,4S)-4-hydroxy-4-methylpyrrolidine-2-carbonyl]piperazin-1-yl]-[2-methyl-4-[[3-[3-(trifluoromethyl)-1H-pyrazol-4-yl]imidazo[1,2-a]pyrazin-8-yl]amino]phenyl]methanone]",0.964 µM
4,"Cc1cc(Nc2nccn3c(-c4c[nH]nc4C(F)(F)F)cnc23)ccc1C(=O)N1CCN(C(=O)[C@H]2CCNC[C@H]2O)CC1 [Example 463, formic acid; [4-[(3S,4S)-3-hydroxypiperidine-4-carbonyl]piperazin-1-yl]-[2-methyl-4-[[3-[3-(trifluoromethyl)-1H-pyrazol-4-yl]imidazo[1,2-a]pyrazin-8-yl]amino]phenyl]methanone]",0.998 µM
5,"Cc1cc(Nc2nccn3c(-c4c[nH]nc4C(F)(F)F)cnc23)ccc1C(=O)N1CCN(C(=O)[C@@H]2CCNC[C@H]2O)CC1 [Example 464, formic acid; [4-[(3S,4R)-3-hydroxypiperidine-4-carbonyl]piperazin-1-yl]-[2-methyl-4-[[3-[3-(trifluoromethyl)-1H-pyrazol-4-yl]imidazo[1,2-a]pyrazin-8-yl]amino]phenyl]methanone]",1.26 µM
6,"Cc1cc(Nc2nccn3c(-c4c[nH]nc4C(F)(F)F)cnc23)ccc1C(=O)N1CCN(C(=O)[C@H]2CCNC[C@@H]2O)CC1 [Example 465, formic acid; [4-[(3R,4S)-3-hydroxypiperidine-4-carbonyl]piperazin-1-yl]-[2-methyl-4-[[3-[3-(trifluoromethyl)-1H-pyrazol-4-yl]imidazo[1,2-a]pyrazin-8-yl]amino]phenyl]methanone]",1.62 µM
7,"Cc1cc(Nc2nccn3c(-c4cn(C)nc4C(F)(F)F)cnc23)ccc1C(=O)N1CCN(C(=O)N[C@@H]2CNC[C@H]2O)CC1 [Example 469, formic acid; N-[(3R,4R)-4-hydroxypyrrolidin-3-yl]-4-[2-methyl-4-[[3-[1-methyl-3-(trifluoromethyl)pyrazol-4-yl]imidazo[1,2-a]pyrazin-8-yl]amino]benzoyl]piperazine-1-carboxamide]",0.705 µM
8,"Cc1cc(Nc2nccn3c(-c4cn(C)nc4C(F)(F)F)cnc23)ccc1C(=O)N1CCN(C(=O)N[C@H]2CNC[C@@H]2O)CC1 [Example 470, formic acid; N-[(3S,4S)-4-hydroxypyrrolidin-3-yl]-4-[2-methyl-4-[[3-[1-methyl-3-(trifluoromethyl)pyrazol-4-yl]imidazo[1,2-a]pyrazin-8-yl]amino]benzoyl]piperazine-1-carboxamide]",0.793 µM
9,"Cc1cc(Nc2nccn3c(-c4cn(C)nc4C(F)(F)F)cnc23)ccc1C(=O)N1CCN(C(=O)C2(O)CCNCC2)CC1 [Example 471, formic acid; [4-(4-hydroxypiperidine-4-carbonyl)piperazin-1-yl]-[2-methyl-4-[[3-[1-methyl-3-(trifluoromethyl)pyrazol-4-yl]imidazo[1,2-a]pyrazin-8-yl]amino]phenyl]methanone]",1.1 µM
10,"Cc1cc(Nc2nccn3c(-c4cn(C)nc4C(F)(F)F)cnc23)ccc1C(=O)N1CCN(C(=O)[C@@H]2C[C@](C)(O)CN2)CC1 [Example 472, formic acid; [4-[(2S,4S)-4-hydroxy-4-methylpyrrolidine-2-carbonyl]piperazin-1-yl]-[2-methyl-4-[[3-[1-methyl-3-(trifluoromethyl)pyrazol-4-yl]imidazo[1,2-a]pyrazin-8-yl]amino]phenyl]methanone]",1.24 µM
11,"Cc1cc(Nc2nccn3c(-c4cn(C)nc4C(F)(F)F)cnc23)ccc1C(=O)N1CCN(C(=O)[C@@H]2C[C@@H](O)CN2)CC1 [Example 473, formic acid; [4-[(2S,4R)-4-hydroxypyrrolidine-2-carbonyl]piperazin-1-yl]-[2-methyl-4-[[3-[1-methyl-3-(trifluoromethyl)pyrazol-4-yl]imidazo[1,2-a]pyrazin-8-yl]amino]phenyl]methanone]",1.29 µM
12,"Cc1cc(Nc2nccn3c(-c4cn(C)nc4C(F)(F)F)cnc23)ccc1C(=O)N1CCN(C(=O)[C@@H]2CCNC[C@@H]2O)CC1 [Example 474, formic acid; [4-[(3R,4R)-3-hydroxypiperidine-4-carbonyl]piperazin-1-yl]-[2-methyl-4-[[3-[1-methyl-3-(trifluoromethyl)pyrazol-4-yl]imidazo[1,2-a]pyrazin-8-yl]amino]phenyl]methanone]",1.34 µM
13,"Cc1cc(Nc2nccn3c(-c4cn(C)nc4C(F)(F)F)cnc23)ccc1C(=O)N1CCN(C(=O)[C@H]2CCNC[C@H]2O)CC1 [Example 475, formic acid; [4-[(3S,4S)-3-hydroxypiperidine-4-carbonyl]piperazin-1-yl]-[2-methyl-4-[[3-[1-methyl-3-(trifluoromethyl)pyrazol-4-yl]imidazo[1,2-a]pyrazin-8-yl]amino]phenyl]methanone]",1.64 µM
14,"Cc1cc(Nc2nccn3c(-c4cn(C)nc4C(F)(F)F)cnc23)ccc1C(=O)N1CCN(C(=O)[C@H]2C[C@H](O)CN2)CC1 [Example 476, formic acid; [4-[(2R,4S)-4-hydroxypyrrolidine-2-carbonyl]piperazin-1-yl]-[2-methyl-4-[[3-[1-methyl-3-(trifluoromethyl)pyrazol-4-yl]imidazo[1,2-a]pyrazin-8-yl]amino]phenyl]methanone]",2.01 µM
15,"Cc1cc(Nc2nccn3c(-c4cn(C)nc4C(F)(F)F)cnc23)ccc1C(=O)N1CCN(C(=O)[C@@H]2CCNC[C@H]2O)CC1 [Example 477, formic acid; [4-[(3S,4R)-3-hydroxypiperidine-4-carbonyl]piperazin-1-yl]-[2-methyl-4-[[3-[1-methyl-3-(trifluoromethyl)pyrazol-4-yl]imidazo[1,2-a]pyrazin-8-yl]amino]phenyl]methanone]",3.24 µM
16,"Cc1cc(Nc2nccn3c(-c4cn(C)nc4C(F)(F)F)cnc23)ccc1C(=O)N1CCN(C(=O)[C@H]2CCNC[C@@H]2O)CC1 [Example 478, formic acid; [4-[(3R,4S)-3-hydroxypiperidine-4-carbonyl]piperazin-1-yl]-[2-methyl-4-[[3-[1-methyl-3-(trifluoromethyl)pyrazol-4-yl]imidazo[1,2-a]pyrazin-8-yl]amino]phenyl]methanone]",3.46 µM
17,"CCc1cc(Nc2nccn3c(-c4cn(CC#N)nc4C(F)(F)F)cnc23)ccc1C(=O)NCCCNC(=O)[C@@H]1CC[C@H](N)C1 [Example 483, N-(3-((1R,3S)-3-(l2-azaneyl)cyclopentane-1-carboxamido)propyl)-4-((3-(1-(cyanomethyl)-3-(trifluoromethyl)-1H-pyrazol-4-yl)imidazo[1,2-a]pyrazin-8-yl)amino)-2-ethylbenzamide formate]",0.194 µM

# Same assay, conditions: Acinetobacter baumannii, ATCC17961, 16 h, strain ATCC 17961, OD600 growth over 16 h, read-out: A. baumannii ATCC 17961 IC90
row,IC90,Compound
1,1.84 µM,"Cc1cc(Nc2nccn3c(-c4c[nH]nc4C(F)(F)F)cnc23)ccc1C(=O)N1CCNCC1 [Example 480, [2-methyl-4-[[3-[3-(trifluoromethyl)-1H-pyrazol-4-yl]imidazo[1,2-a]pyrazin-8-yl]amino]phenyl]-piperazin-1-ylmethanone]"
2,0.117 µM,"N#CCn1cc(-c2cnc3c(Nc4ccc(C(=O)N5CCN(C(=O)[C@H]6[C@@H]7CNC[C@@H]76)CC5)c(Cl)c4)nccn23)c(C(F)(F)F)n1 [Example 481, 2-(4-(8-((4-(4-((1R,5S,6r)-3-azabicyclo[3.1.0]hexane-6-carbonyl)piperazine-1-carbonyl)-3-chlorophenyl)amino)imidazo[1,2-a]pyrazin-3-yl)-3-(trifluoromethyl)-1H-pyrazol-1-yl)acetonitrile formate]"
3,0.174 µM,"CCc1cc(Nc2nccn3c(-c4cn(CC#N)nc4C(F)(F)F)cnc23)ccc1C(=O)NCCCNC(=O)[C@H]1C[C@@H](N)C1 [Example 482, N-(3-((1s,3s)-3-aminocyclobutane-1-carboxamido)propyl)-4-((3-(1-(cyanomethyl)-3-(trifluoromethyl)-1H-pyrazol-4-yl)imidazo[1,2-a]pyrazin-8-yl)amino)-2-ethylbenzamide formate]"

row,Compound,IC90
1,"Cc1cc(Nc2nccn3c(-c4c[nH]nc4C(F)(F)F)cnc23)ccc1C(=O)N1CCN(C(=O)[C@@H]2C[C@@H](O)CN2)CC1 [Example 479, [4-[(2S,4R)-4-hydroxypyrrolidine-2-carbonyl]piperazin-1-yl]-[2-methyl-4-[[3-[3-(trifluoromethyl)-1H-pyrazol-4-yl]imidazo[1,2-a]pyrazin-8-yl]amino]phenyl]methanone hydrochloride]",0.624 µM

# Same assay, conditions: read-out: A. baumannii ATCC 17961 IC90, strain ATCC 17961, OD600 growth over 16 h
row,Compound,IC90
1,"Cc1cc(Nc2nccn3c(-c4c[nH]nc4C(F)(F)F)cnc23)ccc1C(=O)N1CCN(C(=O)[C@@H]2C[C@@H](O)CN2)CC1 [Example 459, formic acid; [4-[(2S,4R)-4-hydroxypyrrolidine-2-carbonyl)piperazin-1-yl]-[2-methyl-4-[[3-[3-(trifluoromethyl)-1H-pyrazol-4-yl]imidazo[1,2-a]pyrazin-8-yl]amino]phenyl]methanone]",0.762 µM
